Patent EP0447186A1, “N-acylated cyclohexapeptide compounds” (MERCK & CO. INC., priority 1990, dated 1991)
Starred links: 1 amine or outer side, 2 acyl side, 3 side chain; linkers in the order of their positions; H or OH if unused. Positions of bridges follow the written chain, without caps; N, C: chain ends. Non-standard residues stand in square brackets, D forms with d. Residues, ends and D or L forms follow the SMILES beside them. ξ: configuration not given here. ξOrn(4,5-diOH) = O=C(C(CC(O)C(O)N[*:3])N[*:1])[*:2]; ξhTyr(βξ-OH,γξ-OH) = NC(C(=O)O)C(O)C(O)c1ccc(O)cc1; X1 = NC(=O)CC(O)C(N[*:1])C(=O)[*:2]; X2 = O=C(C1C(O)CCN1[*:1])[*:2]; Hyp = O=C(O)[CH]1C[CH](O)CN1

Test system: Candida albicans
Assay: Candida albicans bioassay
Format: cell-based
Conditions: bioassay used to monitor HPLC fractions
Procedure: In carrying out the reaction, Compound A, either as a purified compound or as a partially purified sample obtained from the deacylation of Compound B, is dissolved in dry dimethylformamide and the resulting solution intimately contacted with RCOX. The order of addition is not critical. The resulting mixture is stirred at room temperature for about 16 to 20 hours (conveniently overnight) whereupon a reaction takes place with the formation of Compound I. At the end of this period, the dimethylformamide is removed by concentrating in vacuo at 40°C and the resulting residue triturated, preferably sequentially, twice with ether, and then filtered. The filter cake product is generally a free flowing solid and is purified by reverse phase HPLC, typically in 0.5 gram aliquots employing acetonitrile/water as eluting agent. Fractions containing the purified product as determined by C. albicans assay, by U.V. or by refractive index are combined and first concentrated under reduced pressure and then lyophilized to separate the product.

## CC(O)C1NC(=O)C(N)CC(O)C(O)NC(=O)C2C(O)CCN2C(=O)C(C(O)CC(N)=O)NC(=O)C(C(O)C(O)c2ccc(O)cc2)NC(=O)C2CC(O)CN2C1=O (stereo not drawn) [non-acylated cyclohexapeptide compound] (H-[ξOrn(4,5-diOH)]T[Hyp][ξhTyr(βξ-OH,γξ-OH)][X1][X2]; lactam 1-C; configuration not given here)
  activity against Candida albicans: inactive
